Structures can show the parent of a compound that is named as a salt. Where two headings read alike, the source gives them in different places.
Legend:
[1] = molecular target: T1, Human D1 (Homo sapiens (Human), UniProt P21728); assay: Human D1 Receptor Binding Assay ([3H]-SCH23390 competition); settings: read-out: Human D1 Receptor Binding, Ki (μM); Geometric mean of 2-3 determinations; over-expressing LTK human cell lines, 0.5 nM [3H]-SCH23390, 30 min at 37° C.; footnote b = single determination, c = geometric mean of ≧4 determinations
Procedure: D1 binding assays were performed using over-expressing LTK human cell lines. […] These ligand and tissue concentrations were used in time course studies to determine linearity and equilibrium conditions for binding. […] The pellet was resuspended in assay buffer [50 mM Tris (pH 7.4@ RT) containing 4 mM MgSO4 and 0.5 mM EDTA]. […] Non-specific binding was determined by radioligand binding in the presence of a saturating concentration of (+)-Butaclamol (10 μM), a D1 antagonist. After a 30 minute incubation period at 37° C., assay samples were rapidly filtered through Unifilter-96 GF/B PEI-coated filter plates and rinsed with 50 mM Tris buffer (pH 7.4 at 4° C.). […] Ki values were calculated according to the Cheng-Prusoff equation: […]

[2] = molecular target: T1, Human D1; assay: D1 cAMP HTRF Assay; format: cell-based; settings: HEK293T/hD1#1 stable cell line, 30 min at room temperature, footnote a = geometric mean of ≧7 determinations
Description: This assay was used to determine the ability of a test compound to agonize (including partially agonize) D1. A Mab anti-cAMP labeled Cryptate visualizes the tracer. […] The signal, therefore, is inversely proportional to the concentration of cAMP in the sample.
The cAMP Dynamic kit was obtained from Cisbio International (Cisbio 62AM4PEJ). Multidrop Combi (Thermo Scientific) was used for assay additions. An EnVision (PerkinElmer) reader was used to read HTRF.
A HEK293T/hD1#1 stable cell line was constructed internally (Pfizer Ann Arbor).
Media was removed and cell pellet was re-suspended in PBS/[…] generating 2e5 cells/mL. […] Working solutions of cAMP-D2 and anti-cAMP-cryptate were prepared according to Cisbio instructions. […] The assay plate was incubated for 1 hour at room temperature. The assay plate was read on an EnVision plate reader using Cisbio recommended settings.
Data analysis was done using computer software. Percent effects were calculated from the compound controls. Ratio EC50 was determined using the raw ratio data from the EnVision reader. The cAMP standard curve was used in an analysis program to determine cAMP concentrations from raw ratio data. cAMP EC50 was determined using the calculated cAMP data.

[3] = read-out: Human D1 cAMP HTRF, EC50 (μM), Geometric mean of 2-6 determinations

T1 sequence (P21728 whole entry): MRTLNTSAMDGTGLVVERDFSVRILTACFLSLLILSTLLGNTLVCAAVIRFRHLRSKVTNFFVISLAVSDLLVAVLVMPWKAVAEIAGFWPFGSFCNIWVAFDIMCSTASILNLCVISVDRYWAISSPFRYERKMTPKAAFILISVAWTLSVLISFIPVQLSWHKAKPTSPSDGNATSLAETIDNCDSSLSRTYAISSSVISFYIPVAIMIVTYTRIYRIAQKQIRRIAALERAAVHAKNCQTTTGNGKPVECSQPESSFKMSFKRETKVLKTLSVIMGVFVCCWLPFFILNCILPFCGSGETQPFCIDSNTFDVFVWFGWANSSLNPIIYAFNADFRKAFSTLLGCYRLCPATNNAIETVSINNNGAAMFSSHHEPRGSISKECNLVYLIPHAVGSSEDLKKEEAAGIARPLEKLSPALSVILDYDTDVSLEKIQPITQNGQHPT

SMILES	Ki [1] [µM]	EC50 [2] [µM]	EC50 [2, 3] [µM]
Cc1cc(Oc2nccc3[nH]ncc23)ccc1-c1cn[nH]c(=O)c1C [Example 42, 4-methyl-5-[2-methyl-4-(1H-pyrazolo[4,3-c]pyridin-4-yloxy)phenyl]pyridazin-3(2H)-one, trifluoroacetate salt]	0.123	0.34	–
Cc1ncnc(C)c1-c1cc(F)c(Oc2nccc3[nH]ccc23)cc1F [Example 22, 4-[4-(4,6-dimethylpyrimidin-5-yl)-2,5-difluorophenoxy]-1H-pyrrolo[3,2-c]pyridine]	0.0548	0.538	–
Cc1cc(Oc2nccc3[nH]ccc23)ccc1-c1c(C)n[nH]c(=O)c1C (single isomer, unassigned; ent-1) [Example 9, 4,6-dimethyl-5-[2-methyl-4-(1H-pyrrolo[3,2-c]pyridin-4-yloxy)phenyl]pyridazin-3(2H)-one, ENT-1]	0.00487	–	0.00733
Cc1ncnc(C)c1-c1ccc(Oc2nccc3[nH]ncc23)cc1F [Example 32, 4-[4-(4,6-dimethylpyrimidin-5-yl)-3-fluorophenoxy]-1H-pyrazolo[4,3-c]pyridine]	0.0723	0.903	–
Cc1ncnc(C#N)c1-c1ccc(Oc2nccc3[nH]ncc23)cc1F [Example 35, 5-[2-fluoro-4-(1H-pyrazolo[4,3-c]pyridin-4-yloxy)phenyl]-6-methylpyrimidine-4-carbonitrile]	0.0696	1.34	–
Cc1n[nH]c(=O)c(C)c1-c1ccc(Oc2nccc3[nH]nc(C)c23)cc1 [Example 45, 4,6-dimethyl-5-{4-[(3-methyl-1H-pyrazolo[4,3-c]pyridin-4-yl)oxy]phenyl}pyridazin-3(2H)-one]	0.0103	0.0663	–
Cc1cc(Oc2nccc3[nH]ccc23)ccc1-c1c(C)cnnc1C (single isomer, unassigned; ent-1) [Example 11, 4-[4-(3,5-dimethylpyridazin-4-yl)-3-methylphenoxy]-1H-pyrrolo[3,2-c]pyridine, ENT-1]	0.0141	–	0.117
Cc1ncc2nccn2c1-c1ccc(Oc2nccc3[nH]ccc23)cc1F [Example 18, 5-[2-fluoro-4-(1H-pyrrolo[3,2-c]pyridin-4-yloxy)phenyl]-6-methylimidazo[1,2-a]pyrazine]	0.0294	0.141	–
Cc1ncc2nccn2c1-c1ccc(Oc2nccc3[nH]ccc23)cc1 [Example 19, 6-methyl-5-[4-(1H-pyrrolo[3,2-c]pyridin-4-yloxy)phenyl]imidazo[1,2-a]pyrazine]	0.0159	0.464	–
Cc1cc(Oc2nccc3[nH]ccc23)ccc1-c1cn[nH]c(=O)c1C [Example 28, 4-methyl-5-[2-methyl-4-(1H-pyrrolo[3,2-c]pyridin-4-yloxy)phenyl]pyridazin-3(2H)-one]	0.0357	0.0549	–
Cc1cc(Oc2nccc3[nH]ccc23)ccc1-c1c(C)cnn1C [Example 2, 4-[4-(1,4-dimethyl-1H-pyrazol-5-yl)-3-methylphenoxy]-1H-pyrrolo[3,2-c]pyridine]	0.0348	0.355	–
Cc1cc(Oc2nccc3[nH]ccc23)ccc1-c1c(C)ncc(=O)n1C (single isomer, unassigned) [Example 27, (+)-1,5-dimethyl-6-[2-methyl-4-(1H-pyrrolo[3,2-c]pyridin-4-yloxy)phenyl]pyrazin-2(1H)-one]	0.0106	0.0646	–
Cc1cc(Oc2nccc3[nH]cc(C#N)c23)ccc1-c1c(C)ncnc1C [Example 44, 4-[4-(4,6-dimethylpyrimidin-5-yl)-3-methylphenoxy]-1H-pyrrolo[3,2-c]pyridine-3-carbonitrile]	0.0046	0.0553	–
Cc1cc(Oc2nccc3[nH]ncc23)c(F)cc1-c1c(C)ncnc1C [Example 36, 4-[4-(4,6-dimethylpyrimidin-5-yl)-2-fluoro-5-methylphenoxy]-1H-pyrazolo[4,3-c]pyridine]	0.118	0.733	–
Cc1cc(Oc2nccc3n[nH]cc23)ccc1-c1c(C)n[nH]c(=O)c1C (single isomer, unassigned) [Example 3, (+)-4,6-dimethyl-5-[2-methyl-4-(1H-pyrazolo[4,3-c]pyridin-4-yloxy)phenyl]pyridazin-3(2H)-one]	0.00976	0.0151	–
Cc1ncnc(C)c1-c1ccc(Oc2nccc3[nH]ccc23)cc1F [Example 1, 4-[4-(4,6-dimethylpyrimidin-5-yl)-3-fluorophenoxy]-1H-pyrrolo[3,2-c]pyridine]	0.0303	0.176	–
Cc1ncnc(C)c1-c1ccc(Oc2nccc3[nH]ncc23)cc1Cl [Example 37, 4-[3-chloro-4-(4,6-dimethylpyrimidin-5-yl)phenoxy]-1H-pyrazolo[4,3-c]pyridine]	0.0523	0.248	–
Cc1cc(Oc2nccc3n[nH]cc23)ccc1-c1c(C)ncc(=O)n1C (single isomer, unassigned) [Example 40, (+)-1,5-dimethyl-6-[2-methyl-4-(1H-pyrazolo[4,3-c]pyridin-4-yloxy)phenyl]pyrazin-2(1H)-one]	0.0281	0.674	–
Cc1cc(Oc2nccc3[nH]ccc23)ccc1-c1c(C)ncnc1C [Example 5, 4-[4-(4,6-dimethylpyrimidin-5-yl)-3-methylphenoxy]-1H-pyrrolo[3,2-c]pyridine]	0.013	0.146	–

Now from value to compound:

Ki [1] [µM]	EC50 [2] [µM]	EC50 [2, 3] [µM]	SMILES
0.102	0.247	–	Cc1ncnc(C)c1-c1ccc(Oc2nccc3[nH]ccc23)cc1C#N [Example 21, 2-(4,6-dimethylpyrimidin-5-yl)-5-(1H-pyrrolo[3,2-c]pyridin-4-yloxy)benzonitrile]
0.0392	0.374	–	Cc1cc(Oc2nccc3[nH]ccc23)ccc1-c1c(C)ncnc1C#N [Example 17, 6-methyl-5-[2-methyl-4-(1H-pyrrolo[3,2-c]pyridin-4-yloxy)phenyl]pyrimidine-4-carbonitrile]
0.0104	0.0105	–	Cc1cc(Oc2nccc3n[nH]cc23)ccc1-c1c(C)n[nH]c(=O)c1C (single isomer, unassigned) [Example 4, (−)-4,6-dimethyl-5-[2-methyl-4-(1H-pyrazolo[4,3-c]pyridin-4-yloxy)phenyl]pyridazin-3(2H)-one]
0.0443	0.238	–	Cc1ncnc(C)c1-c1ccc(Oc2nccc3[nH]ccc23)cc1 [Example 20, 4-[4-(4,6-dimethylpyrimidin-5-yl)phenoxy]-1H-pyrrolo[3,2-c]pyridine]
0.113	0.568	–	Cc1cc(Oc2nccc3[nH]ncc23)ccc1-c1c(C)ncnc1C [Example 6, 4-[4-(4,6-dimethylpyrimidin-5-yl)-3-methylphenoxy]-1H-pyrazolo[4,3-c]pyridine]
0.124	2.08	–	COc1cc(Oc2nccc3[nH]ncc23)ccc1-c1c(C)ncnc1C [Example 33, 4-[4-(4,6-dimethylpyrimidin-5-yl)-3-methoxyphenoxy]-1H-pyrazolo[4,3-c]pyridine]
0.391	2.38	–	Cc1ncnc(C)c1-c1ccc(Oc2nccc3[nH]ncc23)cc1C#N [Example 34, 2-(4,6-dimethylpyrimidin-5-yl)-5-(1H-pyrazolo[4,3-c]pyridin-4-yloxy)benzonitrile]
0.268	2.76	–	Cc1cc(Oc2nccc3[nH]ncc23)ccc1-n1c(C)nc2cnccc21 [Example 30, 4-[3-methyl-4-(2-methyl-1H-imidazo[4,5-c]pyridin-1-yl)phenoxy]-1H-pyrazolo[4,3-c]pyridine]
0.00504	–	0.00431	Cc1cc(Oc2nccc3[nH]ccc23)ccc1-c1c(C)n[nH]c(=O)c1C (single isomer, unassigned; ent-2) [Example 10, 4,6-dimethyl-5-[2-methyl-4-(1H-pyrrolo[3,2-c]pyridin-4-yloxy)phenyl]pyridazin-3(2H)-one, ENT-2]
0.0975	0.417	–	Cc1cc(Oc2nccc3[nH]ccc23)ccc1-c1cncc2nccn12 [Example 15, 5-[2-methyl-4-(1H-pyrrolo[3,2-c]pyridin-4-yloxy)phenyl]imidazo[1,2-a]pyrazine]
0.00412	0.0192	–	Cc1n[nH]c(=O)c(C)c1-c1ccc(Oc2nccc3[nH]ccc23)cc1 [Example 7, 4,6-dimethyl-5-[4-(1H-pyrrolo[3,2-c]pyridin-4-yloxy)phenyl]pyridazin-3(2H)-one]

Reference: patent US8822494B2 (Pfizer Inc., priority 2012, dated 2014)
